# Experimental data from patent US20240409585A1, “MACROCYCLIC IMMUNOMODULATORS” (priority 2021, published 2024).
# Bridge positions count the residues as written; N and C are the ends. Square brackets hold non-standard residues; d marks the D form. Peptide text beside a SMILES is read from it. * marks the point of attachment. ξ: configuration not given here. Phe(3-CF3) = N[C@@H](Cc1cccc(C(F)(F)F)c1)C(=O)O; Ala(morpholin-4-yl) = N[C@@H](CN1CCOCC1)C(=O)O; Phe(4-COOH) = N[C@@H](Cc1ccc(C(=O)O)cc1)C(=O)O; Bip = N[C@@H](Cc1ccc(-c2ccccc2)cc1)C(=O)O; Phe(3-Me) = Cc1cccc(C[C@H](N)C(=O)O)c1; Val(3-OH) = CC(C)(O)[C@H](N)C(=O)O; Cha = N[C@@H](CC1CCCCC1)C(=O)O; Ile(3ξ) = CCC(C)[C@H](N)C(=O)O; Thr(3ξ) = CC(O)[C@H](N)C(=O)O; Pen = CC(C)(S)[C@H](N)C(=O)O; Carboxymethyl = O=C(O)C*; NMeA = CN[C@@H](C)C(=O)O; Orn = NCCC[C@H](N)C(=O)O; Dab = NCC[C@H](N)C(=O)O; NH(CH2)3NH2 = NCCCN*
# Biological target: T1, PE-labeled human PD-L1-Ig binding to Jurkat cell line over-expressing human PD-1 (Jurkat-PD-1) (Homo sapiens, UniProt Q15116)
# T1 construct: expressed in transfected cells; host or cells: Jurkat
# Assay: Jurkat-PD-1 Cell Binding High-Content Screening Assay (CBA): Method 1
# Settings: Jurkat HPDL1 PD1 IC50 (Method 1), cells printed in nM
# T1 sequence (Q15116 25-288): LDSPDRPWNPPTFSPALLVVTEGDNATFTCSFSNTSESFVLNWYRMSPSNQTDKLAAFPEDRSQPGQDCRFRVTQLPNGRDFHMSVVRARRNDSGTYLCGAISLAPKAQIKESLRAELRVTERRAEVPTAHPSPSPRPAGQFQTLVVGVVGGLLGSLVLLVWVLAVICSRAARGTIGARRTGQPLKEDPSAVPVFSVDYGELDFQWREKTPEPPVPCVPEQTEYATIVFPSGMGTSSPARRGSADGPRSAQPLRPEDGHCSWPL
row,SMILES,IC50 [nM]
1,CC(C)C[C@H]1NC(=O)[C@H](C)N(C)C(=O)[C@H](Cc2ccc(C(=O)O)cc2)NC(=O)[C@H](Cc2ccc(-c3ccccc3)cc2)NC(=O)[C@H](Cc2ccc(C(=O)O)cc2)NC(=O)[C@H](Cc2cccc(C(F)(F)F)c2)NC(=O)[C@H](CC(=O)O)NC(=O)[C@H](Cc2ccc(C(=O)O)cc2)NC(=O)[C@H](CN2CCOCC2)NC(=O)CSC[C@@H](C(=O)N[C@@H](CCN)C(N)=O)NC(=O)[C@H](CCC(=O)O)NC(=O)[C@H](C(C)C)NC(=O)[C@H](CC2CCCCC2)NC(=O)[C@H](CCN)NC1=O [Example 2268] ({CH2CO}-[Ala(morpholin-4-yl)][Phe(4-COOH)]D[Phe(3-CF3)][Phe(4-COOH)][Bip][Phe(4-COOH)][NMeA][dL][Dab][Cha]VEC[Dab]-NH2; thioether N-14),1.3

# Same assay, conditions: Jurkat-hPD-1 cells, PE-labeled PD-L1-Ig 20 nM final; read-out: Jurkat HPDL1 PD1 IC50 (uM) (Method 1)
row,IC50 [nM],SMILES
1,60,CC(=O)NCCCC[C@@H]1NC(=O)[C@H](Cc2ccc(-c3ccccc3)cc2)NC(=O)[C@H](Cc2ccc(O)cc2)NC(=O)[C@H](Cc2cccc(C)c2)NC(=O)[C@H](CC(=O)O)NC(=O)[C@H](Cc2ccc(OCC(=O)O)cc2)NC(=O)[C@H](C(C)O)NC(=O)CSC[C@@H](C(N)=O)NC(=O)[C@H](C(C)O)NC(=O)[C@H](C(C)C)NC(=O)[C@H](CC2CCCCC2)NC(=O)[C@H](CCN)NC(=O)[C@@H](CC(C)C)NC(=O)[C@H](C)N(C)C1=O (stereo partly drawn) [Compound 2255] ({CH2CO}-[Thr(3ξ)]Y(Carboxymethyl)D[Phe(3-Me)]Y[Bip]K(Ac)[NMeA][dL][Dab][Cha]V[Thr(3ξ)]C-NH2; thioether N-14)
2,60,Cc1cccc(C[C@@H]2NC(=O)[C@H](CC(=O)O)NC(=O)[C@H](Cc3ccc(C(=O)O)cc3)NC(=O)[C@H](Cc3ccc(OCC(=O)O)cc3)NC(=O)CSC[C@@H](C(N)=O)NC(=O)[C@H](CCCCN)NC(=O)[C@H](C(C)C)NC(=O)[C@H](CC(C)C)NC(=O)[C@H](CC(N)=O)NC(=O)[C@@H](CC(C)C)NC(=O)[C@H](C)N(C)C(=O)[C@H](C(C)C)NC(=O)[C@H](Cc3ccc(-c4ccccc4)cc3)NC(=O)[C@H](CC(C)C)NC2=O)c1 [Compound 2257] ({CH2CO}-Y(Carboxymethyl)[Phe(4-COOH)]D[Phe(3-Me)]L[Bip]V[NMeA][dL]NLVKC-NH2; thioether N-14)
3,160,CC(C)C[C@@H]1NC(=O)[C@H](Cc2c[nH]c3ccccc23)NC(=O)[C@H](CC(=O)O)NC(=O)[C@H](Cc2ccc(C(=O)O)cc2)NC(=O)[C@H](Cc2ccc(OCC(=O)O)cc2)NC(=O)CSC[C@@H](C(N)=O)NC(=O)[C@H](CCCCN)NC(=O)[C@H](C(C)C)NC(=O)[C@H](CC(C)C)NC(=O)[C@H](CC(N)=O)NC(=O)[C@@H](CC(C)C)NC(=O)[C@H](C)N(C)C(=O)[C@H](C(C)C)NC(=O)[C@H](Cc2ccc(-c3ccccc3)cc2)NC1=O [Compound 2258] ({CH2CO}-Y(Carboxymethyl)[Phe(4-COOH)]DWL[Bip]V[NMeA][dL]NLVKC-NH2; thioether N-14)
4,100,Cc1cccc(C[C@@H]2NC(=O)[C@H](CC(=O)O)NC(=O)[C@H](Cc3ccc(OCC(=O)O)cc3)NC(=O)[C@H](C(C)O)NC(=O)CSC[C@@H](C(N)=O)NC(=O)[C@H](CCCCN)NC(=O)[C@H](C(C)C)NC(=O)[C@H](CC(C)C)NC(=O)[C@H](CC(N)=O)NC(=O)[C@@H](CC(C)C)NC(=O)[C@H](C)N(C)C(=O)[C@H](C(C)C)NC(=O)[C@H](Cc3ccc(-c4ccccc4)cc3)NC(=O)[C@H](CC(C)C)NC2=O)c1 (stereo partly drawn) [Compound 2259] ({CH2CO}-[Thr(3ξ)]Y(Carboxymethyl)D[Phe(3-Me)]L[Bip]V[NMeA][dL]NLVKC-NH2; thioether N-14)
5,260,CC(C)C[C@@H]1NC(=O)[C@H](Cc2c[nH]c3ccccc23)NC(=O)[C@H](CC(=O)O)NC(=O)[C@H](Cc2ccc(OCC(=O)O)cc2)NC(=O)[C@H](Cc2ccc(OCC(=O)O)cc2)NC(=O)CSC(C)(C)[C@@H](C(N)=O)NC(=O)[C@H](CO)NC(=O)[C@H](C(C)C)NC(=O)[C@H](CC(C)C)NC(=O)[C@H](CCN)NC(=O)[C@@H](CC(C)C)NC(=O)[C@H](C)N(C)C(=O)[C@H](C(C)C)NC(=O)[C@H](Cc2ccc(-c3ccccc3)cc2)NC1=O [Compound 2260] ({CH2CO}-Y(Carboxymethyl)Y(Carboxymethyl)DWL[Bip]V[NMeA][dL][Dab]LVS[Pen]-NH2; thioether N-14)
6,10,CC(=O)NCCCC[C@@H]1NC(=O)[C@H](C(C)C)NC(=O)[C@H](CC2CCCCC2)NC(=O)[C@H](CCN)NC(=O)[C@@H](CC(C)C)NC(=O)[C@H](C)N(C)C(=O)[C@H](Cc2cnc[nH]2)NC(=O)[C@H](Cc2ccc(-c3ccccc3)cc2)NC(=O)[C@H](C(C)C)NC(=O)[C@H](Cc2cccc(C)c2)NC(=O)[C@H](CC(=O)O)NC(=O)[C@H](Cc2ccc(OCC(=O)O)cc2)NC(=O)[C@H](Cc2ccc(OCC(=O)O)cc2)NC(=O)CSC[C@@H](C(N)=O)NC1=O [Compound 2262] ({CH2CO}-Y(Carboxymethyl)Y(Carboxymethyl)D[Phe(3-Me)]V[Bip]H[NMeA][dL][Dab][Cha]VK(Ac)C-NH2; thioether N-14)
7,10,CC(=O)NCCCC[C@@H]1NC(=O)[C@H](C(C)C)NC(=O)[C@H](CC2CCCCC2)NC(=O)[C@H](CCN)NC(=O)[C@@H](CC(C)C)NC(=O)[C@H](C)N(C)C(=O)[C@H](CC(N)=O)NC(=O)[C@H](Cc2ccc(-c3ccccc3)cc2)NC(=O)[C@H](C(C)C)NC(=O)[C@H](Cc2cccc(C)c2)NC(=O)[C@H](CC(=O)O)NC(=O)[C@H](Cc2ccc(OCC(=O)O)cc2)NC(=O)[C@H](Cc2ccc(OCC(=O)O)cc2)NC(=O)CSC[C@@H](C(N)=O)NC1=O [Compound 2263] ({CH2CO}-Y(Carboxymethyl)Y(Carboxymethyl)D[Phe(3-Me)]V[Bip]N[NMeA][dL][Dab][Cha]VK(Ac)C-NH2; thioether N-14)
8,90,Cc1cccc(C[C@@H]2NC(=O)[C@H](CC(=O)O)NC(=O)[C@H](Cc3ccc(OCC(=O)O)cc3)NC(=O)[C@H](C(C)O)NC(=O)CSC[C@@H](C(N)=O)NC(=O)[C@H](CO)NC(=O)[C@H](C(C)(C)O)NC(=O)[C@H](CC3CCCCC3)NC(=O)[C@H](CCN)NC(=O)[C@@H](CC(C)C)NC(=O)[C@H](C)N(C)C(=O)[C@H](Cc3ccc(OCC(=O)O)cc3)NC(=O)[C@H](Cc3ccc(-c4ccccc4)cc3)NC(=O)[C@H](Cc3ccc(C(=O)O)cc3)NC2=O)c1 (stereo partly drawn) [Compound 2264] ({CH2CO}-[Thr(3ξ)]Y(Carboxymethyl)D[Phe(3-Me)][Phe(4-COOH)][Bip]Y(Carboxymethyl)[NMeA][dL][Dab][Cha][Val(3-OH)]SC-NH2; thioether N-14)
9,20,CC(=O)NCCCC[C@@H]1NC(=O)[C@H](C(C)C)NC(=O)[C@H](CC2CCCCC2)NC(=O)[C@H](CCN)NC(=O)[C@@H](CC(C)C)NC(=O)[C@H](C)N(C)C(=O)[C@H](CCC(N)=O)NC(=O)[C@H](Cc2ccc(-c3ccccc3)cc2)NC(=O)[C@H](C(C)C)NC(=O)[C@H](Cc2cccc(C)c2)NC(=O)[C@H](CC(=O)O)NC(=O)[C@H](Cc2ccc(OCC(=O)O)cc2)NC(=O)[C@H](Cc2ccc(OCC(=O)O)cc2)NC(=O)CSC[C@@H](C(=O)NCCCN)NC1=O [Compound 2265] ({CH2CO}-Y(Carboxymethyl)Y(Carboxymethyl)D[Phe(3-Me)]V[Bip]Q[NMeA][dL][Dab][Cha]VK(Ac)C-{NH(CH2)3NH2}; thioether N-14)
10,150,CCC(C)[C@@H]1NC(=O)[C@H](Cc2ccc(-c3ccccc3)cc2)NC(=O)[C@H](C(C)C)NC(=O)[C@H](Cc2c[nH]c3ccccc23)NC(=O)[C@H](CC(=O)O)NC(=O)[C@H](Cc2ccc(O)cc2)NC(=O)[C@H](C(C)O)NC(=O)CSC[C@@H](C(=O)NCCCN)NC(=O)[C@H](C(C)O)NC(=O)[C@H](C(C)(C)O)NC(=O)[C@H](CC2CCCCC2)NC(=O)[C@H](CC(N)=O)NC(=O)[C@@H](CC(C)C)NC(=O)[C@H](C)N(C)C1=O (stereo partly drawn) [Compound 2266] ({CH2CO}-[Thr(3ξ)]YDWV[Bip][Ile(3ξ)][NMeA][dL]N[Cha][Val(3-OH)][Thr(3ξ)]C-{NH(CH2)3NH2}; thioether N-14)
11,110,CC(C)C[C@H]1NC(=O)[C@H](C)N(C)C(=O)[C@H](CCC(N)=O)NC(=O)[C@H](Cc2ccc(-c3ccccc3)cc2)NC(=O)[C@H](Cc2ccc(C(=O)O)cc2)NC(=O)[C@H](Cc2cccc(C(F)(F)F)c2)NC(=O)[C@H](CC(=O)O)NC(=O)[C@H](Cc2ccc(OCC(=O)O)cc2)NC(=O)[C@H](CN2CCOCC2)NC(=O)CSC[C@@H](C(=O)N[C@@H](CCN)C(N)=O)NC(=O)[C@H](CCCN)NC(=O)[C@H](C(C)C)NC(=O)[C@H](CC2CCCCC2)NC(=O)[C@H](CCN)NC1=O [Example 2272] ({CH2CO}-[Ala(morpholin-4-yl)]Y(Carboxymethyl)D[Phe(3-CF3)][Phe(4-COOH)][Bip]Q[NMeA][dL][Dab][Cha]V[Orn]C[Dab]-NH2; thioether N-14)
12,110,CC(C)C[C@H]1NC(=O)[C@H](C)N(C)C(=O)[C@H](CCC(N)=O)NC(=O)[C@H](Cc2ccc(-c3ccccc3)cc2)NC(=O)[C@H](Cc2ccc(C(=O)O)cc2)NC(=O)[C@H](Cc2cccc(C(F)(F)F)c2)NC(=O)[C@H](CC(N)=O)NC(=O)[C@H](Cc2ccc(C(=O)O)cc2)NC(=O)[C@H](CN2CCOCC2)NC(=O)CSC[C@@H](C(=O)N[C@@H](CCN)C(N)=O)NC(=O)[C@H](CCCN)NC(=O)[C@H](C(C)C)NC(=O)[C@H](CC2CCCCC2)NC(=O)[C@H](CCN)NC1=O [Example 2279] ({CH2CO}-[Ala(morpholin-4-yl)][Phe(4-COOH)]N[Phe(3-CF3)][Phe(4-COOH)][Bip]Q[NMeA][dL][Dab][Cha]V[Orn]C[Dab]-NH2; thioether N-14)
13,140,CC(C)C[C@H]1NC(=O)[C@H](C)N(C)C(=O)[C@H](CCC(N)=O)NC(=O)[C@H](Cc2ccc(-c3ccccc3)cc2)NC(=O)[C@H](Cc2ccc(C(=O)O)cc2)NC(=O)[C@H](Cc2cccc(C(F)(F)F)c2)NC(=O)[C@H](CC(N)=O)NC(=O)[C@H](Cc2ccc(OCC(=O)O)cc2)NC(=O)[C@H](CN2CCOCC2)NC(=O)CSC[C@@H](C(=O)N[C@@H](CCN)C(N)=O)NC(=O)[C@H](CCCN)NC(=O)[C@H](C(C)C)NC(=O)[C@H](CC2CCCCC2)NC(=O)[C@H](CCN)NC1=O [Example 2280] ({CH2CO}-[Ala(morpholin-4-yl)]Y(Carboxymethyl)N[Phe(3-CF3)][Phe(4-COOH)][Bip]Q[NMeA][dL][Dab][Cha]V[Orn]C[Dab]-NH2; thioether N-14)
